Results: US7964607B2, “Pyrazolo[3,4-d]pyrimidine compounds” (Pfizer Inc., priority 2007, dated 2011)
Like-named read-outs stand apart in the source and are kept apart here.

Molecular target: T1, human recombinant PDE9 enzyme (Homo sapiens, UniProt O76083)
T1 construct: made in house; host or cells: SF-9 insect cells
Assay: Phosphodiesterase 9 (PDE9) inhibitory activity, Scintillation Proximity (SPA) assay
Format: biochemical
Experimental: Phosphodiesterase 9 (PDE9) Inhibitory Activity The PDE9 assay was performed using the Phosphodiesterase Scintillation Proximity (SPA) assay (GE Healthcare Life Sciences). […] The human recombinant PDE9 enzyme was generated in SF-9 cells, the cell pellets were sonicated in buffer (20 mM TRIS, 2 mM benzamidine, 1 mM EDTA, 250 mM sucrose, 100 μM PMSF, pH 7.5 with HCl), centrifuged at 40,000×g for 20 min at 4° C. The supernatants were stored at −80° C. […] Test compounds were dissolved in DMSO, diluted in DI H2O and serially diluted in 20% DMSO/80% H2O, for a final concentration of 2% DMSO. For the assay the PDE9 was diluted with assay buffer such that 20% or less of the substrate was hydrolyzed to 5′GMP. Each assay well contained 10 μl of test compound or solvent, 40 μl of [^3H]CGMP and 50 μl of enzyme, background was determined by a high concentration of a PDE inhibitor. The assay was initiated with the addition of the enzyme and carried out at room temperature for 30 min. […] The plates were sealed, vortexed, allowed to set for >300 min, then counted in a Wallac TriLux MicroBeta LSC.

[1] = human recombinant PDE9 from SF-9 cells, 50 nM [3H]cGMP, room temperature, 30 min, Examples 3-114, read-out: G5678A (U): IC50

T1 sequence (O76083 whole entry): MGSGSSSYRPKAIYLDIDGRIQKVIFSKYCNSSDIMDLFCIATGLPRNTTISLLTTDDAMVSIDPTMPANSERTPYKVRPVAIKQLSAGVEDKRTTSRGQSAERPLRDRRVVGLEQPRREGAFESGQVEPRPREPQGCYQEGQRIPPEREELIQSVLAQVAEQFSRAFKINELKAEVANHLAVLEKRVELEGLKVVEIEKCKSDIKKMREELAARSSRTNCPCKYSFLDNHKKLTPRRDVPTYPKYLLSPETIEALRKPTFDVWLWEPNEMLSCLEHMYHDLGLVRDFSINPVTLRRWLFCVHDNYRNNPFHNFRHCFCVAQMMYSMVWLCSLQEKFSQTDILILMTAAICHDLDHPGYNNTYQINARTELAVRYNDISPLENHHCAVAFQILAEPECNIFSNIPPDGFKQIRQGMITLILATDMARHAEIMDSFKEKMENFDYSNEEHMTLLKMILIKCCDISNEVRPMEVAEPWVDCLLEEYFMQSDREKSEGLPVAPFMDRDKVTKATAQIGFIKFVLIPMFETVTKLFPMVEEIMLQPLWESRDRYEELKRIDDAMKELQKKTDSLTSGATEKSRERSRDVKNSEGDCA

| SMILES | IC50 | IC50 [1] |
| --- | --- | --- |
| CCC1CN(Cc2ccccc2)CC1c1nc2c(cnn2C2CCOCC2)c(=O)[nH]1 (racemic) [97(a), 6-[(3,4-trans)-1-benzyl-4-ethylpyrrolidin-3-yl]-1-(tetrahydro-2H-pyran-4-yl)-1,5-dihydro-4H-pyrazolo[3,4-d]pyrimidin-4-one] | 7.2 nM |  |
| C[C@@H]1CN(c2nccc(C(F)(F)F)n2)C[C@H]1c1nc2c(cnn2C2CCCC2)c(=O)[nH]1 (racemic) [Example 4, 1-cyclopentyl-6-{(3,4-trans)-4-methyl-1-[4-(trifluoromethyl)pyrimidin-2-yl]pyrrolidin-3-yl}-1,5-dihydro-4H-pyrazolo[3,4-d]pyrimidin-4-one] |  | 624 nM |
| C[C@@H]1CN(c2ncccn2)C[C@H]1c1nc2c(cnn2C2CCCC2)c(=O)[nH]1 (racemic) [Example 5, 1-cyclopentyl-6-[(3,4-trans)-4-methyl-1-pyrimidin-2-ylpyrrolidin-3-yl]-1,5-dihydro-4H-pyrazolo[3,4-d]pyrimidin-4-one] |  | 558 nM |
| C[C@@H]1CN(C(=O)c2ccccc2)C[C@H]1c1nc2c(cnn2C2CCCC2)c(=O)[nH]1 (racemic) [Example 6, 6-[(3,4-trans)-1-benzoyl-4-methylpyrrolidin-3-yl]-1-cyclopentyl-1,5-dihydro-4H-pyrazolo[3,4-d]pyrimidin-4-one] |  | 57.1 nM |
| C[C@@H]1CN(Cc2cccnc2)C[C@H]1c1nc2c(cnn2C2CCCC2)c(=O)[nH]1 (racemic) [Example 7, 1-cyclopentyl-6-[(3,4-trans)-4-methyl-1-(pyridin-3-ylmethyl)pyrrolidin-3-yl]-1,5-dihydro-4H-pyrazolo[3,4-d]pyrimidin-4-one] |  | 11.6 nM |
| C[C@@H]1CN(Cc2cccc(C(F)(F)F)c2)C[C@H]1c1nc2c(cnn2C2CCCC2)c(=O)[nH]1 (racemic) [Example 8, 1-cyclopentyl-6-{(3,4-trans)-4-methyl-1-[3-(trifluoromethyl)benzyl]pyrrolidin-3-yl}-1,5-dihydro-4H-pyrazolo[3,4-d]pyrimidin-4-one] |  | 11.2 nM |
| C[C@@H]1CN(Cc2ccc3ccccc3n2)C[C@H]1c1nc2c(cnn2C2CCCC2)c(=O)[nH]1 (racemic) [Example 9, 1-cyclopentyl-6-[(3,4-trans)-4-methyl-1-(quinolin-2-ylmethyl)pyrrolidin-3-yl]-1,5-dihydro-4H-pyrazolo[3,4-d]pyrimidin-4-one] |  | 2.84 nM |
| C[C@@H]1CN(Cc2ccnc3ccccc23)C[C@H]1c1nc2c(cnn2C2CCCC2)c(=O)[nH]1 (racemic) [Example 10, 1-cyclopentyl-6-[(3,4-trans)-4-methyl-1-(quinolin-4-ylmethyl)pyrrolidin-3-yl]-1,5-dihydro-4H-pyrazolo[3,4-d]pyrimidin-4-one] |  | 4.98 nM |
| C[C@@H]1CN(Cc2ccc(C(F)(F)F)nc2)C[C@H]1c1nc2c(cnn2C2CCCC2)c(=O)[nH]1 (racemic) [Example 11, 1-cyclopentyl-6-[(3,4-trans)-4-methyl-1-{[6-(trifluoromethyl)pyridin-3-yl]methyl}pyrrolidin-3-yl]-1,5-dihydro-4H-pyrazolo[3,4-d]pyrimidin-4-one] |  | 18.9 nM |
| C[C@@H]1CN(Cc2cnc3ccccc3n2)C[C@H]1c1nc2c(cnn2C2CCCC2)c(=O)[nH]1 (racemic) [Example 12, 1-cyclopentyl-6-[(3,4-trans)-4-methyl-1-(quinoxalin-2-ylmethyl)pyrrolidin-3-yl]-1,5-dihydro-4H-pyrazolo[3,4-d]pyrimidin-4-one] |  | 7.23 nM |
| C[C@@H]1CN(Cc2ccc3nccnc3c2)C[C@H]1c1nc2c(cnn2C2CCCC2)c(=O)[nH]1 (racemic) [Example 13, 1-cyclopentyl-6-[(3,4-trans)-4-methyl-1-(quinoxalin-6-ylmethyl)pyrrolidin-3-yl]-1,5-dihydro-4H-pyrazolo[3,4-d]pyrimidin-4-one] |  | 6.61 nM |
| C[C@@H]1CN(Cc2cncnc2)C[C@H]1c1nc2c(cnn2C2CCCC2)c(=O)[nH]1 (racemic) [Example 14, 1-cyclopentyl-6-[(3,4-trans)-4-methyl-1-(pyrimidin-5-ylmethyl)pyrrolidin-3-yl]-1,5-dihydro-4H-pyrazolo[3,4-d]pyrimidin-4-one] |  | 26 nM |
| Cc1ncccc1CN1C[C@@H](C)[C@H](c2nc3c(cnn3C3CCCC3)c(=O)[nH]2)C1 (racemic) [Example 17, 1-cyclopentyl-6-{(3,4-trans)-4-methyl-1-[(2-methylpyridin-3-yl)methyl]pyrrolidin-3-yl}-1,5-dihydro-4H-pyrazolo[3,4-d]pyrimidin-4-one] |  | 16.2 nM |
| C[C@@H]1CN(Cc2cccc3cccnc23)C[C@H]1c1nc2c(cnn2C2CCCC2)c(=O)[nH]1 (racemic) [Example 18, 1-cyclopentyl-6-[(3,4-trans)-4-methyl-1-(quinolin-8-ylmethyl)pyrrolidin-3-yl]-1,5-dihydro-4H-pyrazolo[3,4-d]pyrimidin-4-one] |  | 8.26 nM |
| C[C@@H]1CN(Cc2cnc3ccccc3c2)C[C@H]1c1nc2c(cnn2C2CCCC2)c(=O)[nH]1 (racemic) [Example 19, 1-cyclopentyl-6-[(3,4-trans)-4-methyl-1-(quinolin-3-ylmethyl)pyrrolidin-3-yl]-1,5-dihydro-4H-pyrazolo[3,4-d]pyrimidin-4-one] |  | 2.68 nM |
| Cc1ccc(CN2C[C@@H](C)[C@H](c3nc4c(cnn4C4CCCC4)c(=O)[nH]3)C2)cn1 (racemic) [Example 20, 1-cyclopentyl-6-{(3,4-trans)-4-methyl-1-[(6-methylpyridin-3-yl)methyl]pyrrolidin-3-yl}-1,5-dihydro-4H-pyrazolo[3,4-d]pyrimidin-4-one] |  | 7.06 nM |
| CC(C)[C@@H]1CN(Cc2ccccc2)C[C@H]1c1nc2c(cnn2C2CCCC2)c(=O)[nH]1 (racemic) [Example 21, 6-[(3,4-trans)-1-benzyl-4-isopropylpyrrolidin-3-yl]-1-cyclopentyl-1,5-dihydro-4H-pyrazolo[3,4-d]pyrimidin-4-one] |  | 34.5 nM |
| Cc1nn(C2CCCC2)c2nc([C@@H]3CN(Cc4ccccc4)C[C@H]3C)[nH]c(=O)c12 (racemic) [Example 22, 6-[(3,4-trans)-1-benzyl-4-methylpyrrolidin-3-yl]-1-cyclopentyl-3-methyl-1,5-dihydro-4H-pyrazolo[3,4-d]pyrimidin-4-one] |  | 43.6 nM |
| C[C@@H]1CN(CCc2ccccc2)C[C@H]1c1nc2c(cnn2C2CCCC2)c(=O)[nH]1 (racemic) [Example 24, 1-cyclopentyl-6-[(3,4-trans)-4-methyl-1-(2-phenylethyl)pyrrolidin-3-yl]-1,5-dihydro-4H-pyrazolo[3,4-d]pyrimidin-4-one] |  | 119 nM |
| COc1ccc(CN2C[C@@H](C)[C@H](c3nc4c(cnn4C4CCCC4)c(=O)[nH]3)C2)cn1 (racemic) [Example 25, 1-cyclopentyl-6-{(3,4-trans)-1-[(6-methoxypyridin-3-yl)methyl]-4-methylpyrrolidin-3-yl}-1,5-dihydro-4H-pyrazolo[3,4-d]pyrimidin-4-one] |  | 9.07 nM |
| C[C@@H]1CN(Cc2ccccn2)C[C@H]1c1nc2c(cnn2C2CCCC2)c(=O)[nH]1 (racemic) [Example 26, 1-cyclopentyl-6-[(3,4-trans)-4-methyl-1-(pyridin-2-ylmethyl)pyrrolidin-3-yl]-1,5-dihydro-4H-pyrazolo[3,4-d]pyrimidin-4-one] |  | 11.4 nM |
| Cc1cccnc1CN1C[C@@H](C)[C@H](c2nc3c(cnn3C3CCCC3)c(=O)[nH]2)C1 (racemic) [Example 27, 1-cyclopentyl-6-{(3,4-trans)-4-methyl-1-[(3-methylpyridin-2-yl)methyl]pyrrolidin-3-yl}-1,5-dihydro-4H-pyrazolo[3,4-d]pyrimidin-4-one] |  | 7.45 nM |
| CC[C@@H]1CN(Cc2ccccc2)C[C@H]1c1nc2c(cnn2C2CCCC2)c(=O)[nH]1 (racemic) [Example 28, 6-[(3,4-trans)-1-benzyl-4-ethylpyrrolidin-3-yl]-1-cyclopentyl-1,5-dihydro-4H-pyrazolo[3,4-d]pyrimidin-4-one] |  | 6.86 nM |
| O=c1[nH]c([C@@H]2CN(Cc3ccccc3)C[C@H]2C2CC2)nc2c1cnn2C1CCCC1 (racemic) [Example 29, 6-[(3,4-trans)-1-benzyl-4-cyclopropylpyrrolidin-3-yl]-1-cyclopentyl-1,5-dihydro-4H-pyrazolo[3,4-d]pyrimidin-4-one] |  | 2.17 nM |
| CC(C)n1ncc2c(=O)[nH]c([C@@H]3CN(Cc4ccc5ccccc5n4)C[C@H]3C)nc21 (racemic) [Example 32, 1-isopropyl-6-[(3,4-trans)-4-methyl-1-(quinolin-2-ylmethyl)pyrrolidin-3-yl]-1,5-dihydro-4H-pyrazolo[3,4-d]pyrimidin-4-one] |  | 5.19 nM |
| CC(C)n1ncc2c(=O)[nH]c([C@@H]3CN(Cc4ccc5nccnc5c4)C[C@H]3C)nc21 (racemic) [Example 33, 1-isopropyl-6-[(3,4-trans)-4-methyl-1-(quinoxalin-6-ylmethyl)pyrrolidin-3-yl]-1,5-dihydro-4H-pyrazolo[3,4-d]pyrimidin-4-one] |  | 6.29 nM |
| CC(C)n1ncc2c(=O)[nH]c([C@@H]3CN(Cc4cnc5ccccc5c4)C[C@H]3C)nc21 (racemic) [Example 34, 1-isopropyl-6-[(3,4-trans)-4-methyl-1-(quinolin-3-ylmethyl)pyrrolidin-3-yl]-1,5-dihydro-4H-pyrazolo[3,4-d]pyrimidin-4-one] |  | 4.33 nM |
